# Laboratory results taken from paper PMC6479714, “Multiplex Analysis Platform for Endocrine Disruption Prediction Using Zebrafish” (International Journal of Molecular Sciences, 2019).
# Read-outs that look alike come from different tables or passages of the source.
# What was measured:
# vitellogenin 1 (vtg1) = experiment: vtg1 gene expression (qPCR) in exposed zebrafish embryos; conditions: for EC50: Danio rerio, read-out: EC50 vtg1; for LogEC50 (vtg1 mRNA): log of EC50 in μM, 48-120 h, our study
# vtg - blood [1] = conditions: 21 days (adults), cited from earlier work; for EC50: read-out: EC50 (vtg - blood); for LogEC50 (vtg - blood): log of EC50 in μM
# vtg - blood [2] = conditions: cited from earlier work; for LogEC50 (vtg - blood): log of EC50 in μM
# vtg1 - fluorescence = conditions: 21 days (adults), cited from earlier work
# vtg - blood [3] = conditions: 8 days (adults), cited from earlier work
# cyp19a1b - fluorescence = conditions: 0-96 h, cited from earlier work; for LogEC50 (cyp19a1b - fluorescence): log of EC50 in μM
# cyp19a1b - mRNA [4] = conditions: 14 days (adults), cited from earlier work
# vtg1 - mRNA = conditions: cited from earlier work
# aromatase (cyp19a1) = experiment: cyp19a gene expression (qPCR) in exposed zebrafish embryos; assay type: in vivo, zebrafish (Danio rerio); conditions: exposed 48–120 hpf; Figure S1
# cyp19a1b - mRNA [5] = conditions: cited from earlier work
# cyp19a1b - mRNA [6] = conditions: cited from earlier work; for LogEC50 (cyp19a1b - mRNA): log of EC50 in μM
# [7] = system: brain aromatase (cyp19a1b); experiment: cyp19a1b gene expression (qPCR) in exposed zebrafish embryos; assay type: in vivo, zebrafish (Danio rerio)
# [8] = system: iodothyronine deiodinase 2 (dio2); experiment: dio2 gene expression (qPCR) in exposed zebrafish embryos; assay type: in vivo, zebrafish (Danio rerio); conditions: for EC50: Danio rerio
# thyroid peroxidase (tpo) = experiment: tpo gene expression (qPCR) in exposed zebrafish embryos; assay type: in vivo, zebrafish (Danio rerio); conditions: for EC50: Danio rerio
# [9] = acute toxicity test from 48–120 hpf based on the OECD FET test; assay type: in vivo, zebrafish (Danio rerio); conditions: in vivo; zebrafish embryos exposed 48–120 hpf
# Description: Twenty embryos per treatment were exposed to 5 concentrations of compound of interest in a 10× dilution factor from 48–120 hpf, which is the experimental time in which EDCs will be screened posteriorly. Embryos were exposed from 48–120 hpf rather than 0–96 hpf or 0–120 hpf to avoid unspecific toxicity outside of the EDC testing period, which have been chosen on the basis that endocrine pathways, e.g., thyroid metabolism, are not fully functional until 40–55 hpf in zebrafish embryos. Stock solutions of chemicals to be tested were freshly prepared in exposure medium. The highest concentration for each compound was selected according to its water solubility (Table S1). Exposures were performed in glass vessels to assure maximum bioavailability for hydrophobic compounds, and medium was not exchanged during the experiment.
# [10] = system: iodothyronine deiodinase 1 (dio1); experiment: dio1 gene expression (qPCR) in exposed zebrafish embryos; assay type: in vivo; conditions: Danio rerio; exposed 48–120 hpf; Figure 4; no unit printed for this gene
# pax8 = pax8 gene expression (qPCR) in exposed zebrafish embryos; assay type: in vivo, zebrafish (Danio rerio); conditions: exposed 48–120 hpf
# transthyretin (ttr) = experiment: ttr gene expression (qPCR) in exposed zebrafish embryos; assay type: in vivo, zebrafish (Danio rerio); conditions: for EC50: Danio rerio
# cyp19a1b - vtg1 mRNA = experiment: estrogenic markers considered together (cyp19a1b - vtg1 mRNA), zebrafish embryos; conditions: Danio rerio, read-out: EC50 (cyp19a1b - vtg1 mRNA), class symbol
# carp hepatocytes = system: carp hepatocytes; set-up: method as in PMID 10478856; conditions: concentrations up to 100 µM; cited from earlier work
# dio2 - mRNA = system: dio2 - mRNA; set-up: method as in earlier work; conditions: 0-120 h, ref [33] (supplement list), cited from earlier work
# thyroid receptor α (trα) = experiment: trα gene expression (qPCR) in exposed zebrafish embryos; assay type: in vivo, zebrafish (Danio rerio); conditions: exposed 48–120 hpf
# [11] = E2 1 µM alone, rescue experiment
# [12] = ref [3] (supplement list: Brion 2012)
# [13] = log of EC50 in μM, 48-120 h, our study
# [14] = exogenous T3, 48–120 hpf, downregulated
structure (smiles),measurement,setting,value
"C[C@]12CC[C@@H]3c4ccc(O)cc4CC[C@H]3[C@@H]1CC[C@@H]2O [E2, 17β-estradiol]",EC50,vitellogenin 1 (vtg1),190 nM
same,"FI vtg1, single exposure",vitellogenin 1 (vtg1); [11],394.39
same,LogEC50 (vtg1 mRNA),vitellogenin 1 (vtg1),-0.7212
same,EC50,"vtg - blood [1]; * mean of an approximate range, ref [16] (supplement list: Parks 1999)",~0.6 nM
same,EC50,vtg - blood [1]; ref [15] (supplement list: Dammann 2011),0.09 nM
same,LogEC50 (vtg - blood),vtg - blood [1]; ref [15] (supplement list),-4.046
same,LogEC50 (vtg - blood),vtg - blood [1]; ref [16] (supplement list),-3.222
same,EC50,"vtg - blood [2]; 14 days (adults), ref [14] (supplement list: Brian 2005)",0.09 nM
same,EC50,"vtg - blood [2]; 24 days (adults), ref [13] (supplement list: Van den Belt 2004)",0.6 nM
same,LogEC50 (vtg - blood),"vtg - blood [2]; 14 days (adults), ref [14] (supplement list)",-4.046
same,LogEC50 (vtg - blood),"vtg - blood [2]; 24 days (adults), ref [13] (supplement list)",-3.222
same,EC50,vtg1 - fluorescence; ref [17] (supplement list: Zeng 2005),~0.55 nM
same,LogEC50 (vtg1 - fluorescence),"vtg1 - fluorescence; log of EC50 in μM, ref [17] (supplement list)",-3.26
same,EC50,vtg - blood [3]; ref [12] (supplement list: Rose 2002),0.2 nM
same,LogEC50 (vtg - blood),"vtg - blood [3]; log of EC50 in μM, ref [12] (supplement list)",-3.699
same,EC50,cyp19a1b - fluorescence; ref [2] (supplement list: Petersen 2013),3.4 nM
same,EC50,cyp19a1b - fluorescence; [12],2.4 nM
same,LogEC50 (cyp19a1b - fluorescence),cyp19a1b - fluorescence; ref [2] (supplement list),-2.469
same,LogEC50 (cyp19a1b - fluorescence),cyp19a1b - fluorescence; ref [3] (supplement list),-2.62
same,EC50,"cyp19a1b - mRNA [4]; effects only detected in males, ref [9] (supplement list: Halm 2002)",0.4 nM
same,LogEC50 (cyp19a1b - mRNA),"cyp19a1b - mRNA [4]; log of EC50 in μM, males, ref [9] (supplement list)",-3.398
same,EC50,"vtg1 - mRNA; 0-120 h, * mean of an approximate range, ref [11] (supplement list: Muncke 2006), read-out: EC50 (vtg1 - mRNA)",~30 nM
same,EC50,"vtg1 - mRNA; 0-168 h, * mean of an approximate range, ref [10] (supplement list: Chen 2018), read-out: EC50 (vtg1 - mRNA)",~180 nM
same,LogEC50 (vtg1 - mRNA),"vtg1 - mRNA; log of EC50 in μM, 0-120 h, ref [11] (supplement list)",-1.523
same,LogEC50 (vtg1 - mRNA),"vtg1 - mRNA; log of EC50 in μM, 0-168 h, ref [10] (supplement list)",-0.757
same,response of cyp19a,aromatase (cyp19a1),no response
same,"EC50 (cyp19a1b - mRNA), class symbol","cyp19a1b - mRNA [5]; 7 days (adults), ref [7] (supplement list: Hinfray 2006)",n.e.
same,"EC50 (cyp19a1b - mRNA), class symbol","cyp19a1b - mRNA [5]; 21 days (adults), ref [8] (supplement list: Kallivretaki 2006)",n.e.
same,EC50,"cyp19a1b - mRNA [6]; 0-72 h, * mean of an approximate range, ref [4] (supplement list: Lassiter 2007)",~10 nM
same,EC50,"cyp19a1b - mRNA [6]; 0-96 h, ref [3] (supplement list: Brion 2012)",4.1 nM
same,EC50,"cyp19a1b - mRNA [6]; 2-48 h, * mean of an approximate range, ref [6] (supplement list: Kishida 2001)",~10 nM
same,EC50,"cyp19a1b - mRNA [6]; 72-96 h, * mean of an approximate range, ref [5] (supplement list: Chung 2011)",~5.5 nM
same,LogEC50 (cyp19a1b - mRNA),"cyp19a1b - mRNA [6]; 0-72 h, ref [4] (supplement list)",-2
same,LogEC50 (cyp19a1b - mRNA),"cyp19a1b - mRNA [6]; 0-96 h, ref [3] (supplement list)",-2.387
same,LogEC50 (cyp19a1b - mRNA),"cyp19a1b - mRNA [6]; 2-48 h, ref [6] (supplement list)",-2
same,LogEC50 (cyp19a1b - mRNA),"cyp19a1b - mRNA [6]; 72-96 h, ref [5] (supplement list)",-2.26
same,EC50,"[7]; Danio rerio, zebrafish embryos exposed 48–120 hpf, mRNA by qPCR",90 nM
same,"FI cyp19a1b, single exposure",[7]; [11],64.54
same,LogEC50 (cyp19a1b mRNA),[7]; [13],-1.046
"N[C@@H](Cc1cc(I)c(Oc2ccc(O)c(I)c2)c(I)c1)C(=O)O [T3, 3,3′,5-triiodo-L-thyronine]",EC50,"[8]; read-out: EC50 dio2, exposed 48–120 hpf, Figure 4, downregulated",0.28 nM
same,EC50,"[8]; read-out: EC50 dio2, exposure 0–96 hpf, Figure 1, comparison of exposure windows, 0–96 hpf",6.81 nM
same,EC50,"[8]; read-out: EC50 dio2, exposure 48–120 hpf, Figure 1, comparison of exposure windows, 48–120 hpf",1.23 nM
same,EC50,"[8]; read-out: EC50 dio2, zebrafish embryos exposed 48–120 hpf, mRNA by qPCR",0.3 nM
same,FI dio2,[8]; [14],0.26
same,EC50,"thyroid peroxidase (tpo); read-out: EC50 tpo, exposed 48–120 hpf, Figure 4, upregulated",9.93 nM
same,EC50,"thyroid peroxidase (tpo); read-out: EC50 tpo, exposure 48–120 hpf, Figure 1, comparison of exposure windows, 48–120 hpf",4.09 nM
same,EC50,"thyroid peroxidase (tpo); read-out: EC50 tpo, zebrafish embryos exposed 48–120 hpf, mRNA by qPCR",10 nM
same,"effect on tpo expression, exposure 0–96 hpf",thyroid peroxidase (tpo); embryos exposed from 0–96 hpf,slight decrease
same,FI tpo,"thyroid peroxidase (tpo); exogenous T3, 48–120 hpf, upregulated",4.11
same,LC50,[9],6000 nM
same,EC50,[10],3.58 nM
same,response of pax8,pax8,lack of response
same,EC50,"transthyretin (ttr); read-out: EC50 ttr, exposed 48–120 hpf, Figure 4, downregulated",0.31 nM
same,EC50,"transthyretin (ttr); read-out: EC50 ttr, exposure 0–96 hpf, Figure 1, comparison of exposure windows, 0–96 hpf",0.49 nM
same,EC50,"transthyretin (ttr); read-out: EC50 ttr, exposure 48–120 hpf, Figure 1, comparison of exposure windows, 48–120 hpf",0.32 nM
same,EC50,"transthyretin (ttr); read-out: EC50 ttr, zebrafish embryos exposed 48–120 hpf, mRNA by qPCR",0.3 nM
same,FI ttr,transthyretin (ttr); [14],0.49
"O=S1OCC2C(CO1)C1(Cl)C(Cl)=C(Cl)C2(Cl)C1(Cl)Cl (stereo not drawn) [END, endosulfan]",FI vtg1 at the most effective concentration,"vitellogenin 1 (vtg1); 4 µM, compared to controls, downregulation",0.35
same,EC50,vitellogenin 1 (vtg1),330 nM
same,LogEC50 (vtg1 mRNA),vitellogenin 1 (vtg1),-0.4815
same,downregulation of vtg1 expression compared to controls,vitellogenin 1 (vtg1); most effective concentration (4 µM),more than 50%
same,EC50,thyroid peroxidase (tpo); read-out: EC50 tpo,60 nM
same,"EC50 (cyp19a1b - fluorescence), class symbol",cyp19a1b - fluorescence; [12],n.e.
same,EC50,cyp19a1b - vtg1 mRNA,> 4000 nM
same,EC50,"vtg1 - mRNA; 6-96 h, ref [25] (supplement list: Moon 2016), read-out: EC50 (vtg mRNA)",1960 nM
same,LogEC50 (vtg mRNA),"vtg1 - mRNA; log of EC50 in μM, 6-96 h, ref [25] (supplement list)",0.2923
same,effect on expression of cyp19a1b,[7]; exposed 48–120 hpf,not affecting expression
same,induction of vitellogenesis in carp hepatocytes,carp hepatocytes,not able to induce vitellogenesis
"CCCCC(O)(Cn1cncn1)c1ccc(Cl)cc1Cl (stereo not drawn) [HEX, hexaconazole]",EC50,dio2 - mRNA; * mean of an approximate range,~3980 nM
same,LogEC50 (dio2 - mRNA),dio2 - mRNA; log of EC50 in μM,0.5999
same,EC50,"[8]; zebrafish embryos exposed 48–120 hpf, mRNA by qPCR, read-out: EC50 dio2",2220 nM
same,LogEC50 (dio2 - mRNA),[8]; [13],0.3464
same,LC50,[9],23400 nM
same,effect on trα expression,thyroid receptor α (trα),remained unaltered
same,effect on ttr expression,transthyretin (ttr); exposed 48–120 hpf,remained unaltered
